Laboratory results reported in ChEMBL document CHEMBL1201862, “PubChem BioAssay data set” (2004).
Activity calls are given as the source filed them.

What was measured:
[1] = target: Galanin receptor type 3 (Homo sapiens, UniProt O60755); assay: Fluorescence-based cell-based primary high throughput dose response assay to identify antagonists of the Galanin Receptor 3 (GalR3).; format: functional
[2] = cells; format: functional, cell-based; conditions: HEK-CNG
[3] = T. cruzi growth inhibition in host cells, dose response, cell-based, plate reader, dry powder, set 2 (AID 652275); format: functional
[4] = target: FAD-linked sulfhydryl oxidase ALR (Homo sapiens, UniProt P55789); assay: inhibitors of human ALR sulfhydryl oxidase, dose response, biochemical, H2O2 detection, luminescence, cherry-pick (AID 493248)
[5] = target: Albumin (Bos taurus, UniProt P02769); assay: Counterscreen for inhibitors of T-cell receptor (TCR)-CD3 interaction: Fluorescence-based biochemical high throughput dose response assay to identify inhibitors of T-cell receptor (TCR)-CD3 interaction using a TAMRA-labeled BSA probe.; format: functional
[6] = target: Major prion protein (Homo sapiens, UniProt P04156); format: functional, cell-based
[7] = cells
[8] = target: Paired box protein Pax-8 (Homo sapiens, UniProt Q06710); assay: inhibitors of PAX8-driven TPO luciferase reporter, dose response, RMG-I cells, cherry-pick (AID 687027); format: functional, cell-based;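 further: luciferase reporter driven by Pax8 target thyroperoxidase promoter measured by SteadyGlo luminescence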
[9] = PAX2 cell-based inhibition, dose response, selectivity assay for PAX8 inhibitor project, plate reader, dry powder samples (AID 743048); format: functional;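 further: HEK293 cells carrying a WT1 promoter luciferase reporter driven by expressed Pax2; potency is for inhibition of Pax2 driven reporter signal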
[10] = cytotoxicity in COV362 ovarian cancer cells, dose response, cytotoxicity control for PAX8 inhibitor project, cell-based, plate reader, dry powder, SA12 (AID 743144); format: functional
[11] = PAX5 activity inhibitors, dose response, selectivity assay for PAX8 inhibitor project, cell-based, plate reader, dry powder samples (AID 743047); format: functional;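 further: HEK293 cells carrying a Pax5 driven CD19 promoter luciferase reporter; potency of inhibitors that lower reporter luminescence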
[12] = cytotoxicity in COV434 cells, dose response, cytotoxicity control for PAX8 inhibitor project, cell-based, plate reader, dry powder, SA7 (AID 743145); format: functional
[13] = cytotoxicity dependent on PAX8, dose response, cell-based, plate reader, dry powder (AID 743049); format: functional
[14] = inhibitors of HIV Env-driven cell fusion, dose response, cherry-pick (AID 652057); format: functional, cell-based
[15] = cells; format: functional, cell-based
[16] = target: T1, Trace amine-associated receptor 1 (Homo sapiens, UniProt Q96RJ0); assay: Fluorescence-based cell-based high throughput dose response assay to identify agonists of the human trace amine associated receptor 1 (TAAR1).; format: functional
T1 sequence (Q96RJ0 whole entry): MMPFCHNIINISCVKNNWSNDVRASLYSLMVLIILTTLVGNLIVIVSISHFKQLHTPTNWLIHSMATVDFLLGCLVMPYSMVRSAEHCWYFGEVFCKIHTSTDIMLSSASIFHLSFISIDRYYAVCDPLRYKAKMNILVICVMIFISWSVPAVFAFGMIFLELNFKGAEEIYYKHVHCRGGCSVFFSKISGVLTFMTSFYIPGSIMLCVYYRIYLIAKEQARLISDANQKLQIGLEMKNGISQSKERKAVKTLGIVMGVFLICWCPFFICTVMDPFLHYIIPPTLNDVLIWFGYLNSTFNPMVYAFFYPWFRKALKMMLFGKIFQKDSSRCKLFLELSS

[17] = target: T1, Trace amine-associated receptor 1; assay: Counterscreen for agonists of the human trace amine associated receptor 1 (hTAAR1): Fluorescence-based cell-based high throughput dose response assay to identify hTAAR1 agonist that also desensitize TAAR1 receptor response.; format: functional
[18] = cells; format: functional, cell-based; remark: listed apart in the source
[19] = off-target signal loss in HeLa-CEM21 co-culture – HeLa F-luc CTL cells, cherry-picked, counter-screen for HIV-1 Env fusion inhibitor project, dose response (AID 652040); format: functional, cell-based;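 further: potency for signal decrease marking cytotoxic or nonspecific inhibition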
[20] = target: Cytochrome P450 2C9 (Homo sapiens, UniProt P11712)

Q: With `CC(=O)OCC[N+](C)(C)C.[O-][Cl+3]([O-])([O-])[O-]` as the molecule, how does the IC50 [1] read?
A: The IC50 was 0.618 µM (active).

Q: What about the EC50 [2] of the same molecule?
A: Its EC50 is > 29.9 µM (inactive).

Q: For `Cc1cc(C(=O)CSc2nc(N)cc(O)n2)c(C)n1-c1ccc(OC(F)F)cc1`, which IC50 [1] is on record?
A: Its IC50 is 2.9 µM (active).

Q: And the EC50 [2]?
A: The EC50 was > 29.9 µM (inactive).

Q: For `CN(C)C(=O)c1cccc(-c2ccc([C@H]3[C@@H](CO)N4CCCCN(C(=O)C5CCCC5)C[C@@H]34)cc2)c1`, which AC50 [3] is on record?
A: The AC50 was 0.691 µM (active).

Q: Which AC50 [4] does the source give for `COC(=O)c1cc(O)c(O)c(O)c1` [GALLIC ACID METHYL ESTER] here?
A: The AC50 was 4.94 µM (active).

Q: What about the IC50 [5] of the same molecule?
A: The IC50 was > 94.3 µM (inactive).

Q: What does the source list for `COc1ccc(C(=O)NNC(=O)CSc2nc(C(C)C)nc3ccccc23)cc1`?
A: IC50 [6]: 1.98 µM (active); IC50 [7]: > 138 µM (inactive)

Q: With `CC(C)N1C[C@@H](CN(C)Cc2ccc(Cl)cc2)Oc2c(NC(=O)c3ccccc3)cccc2C1=O` as the molecule, how does the AC50 [3] read?
A: Its AC50 is 1.49 µM (active).

Q: With `C[C@H](CO)N1C[C@H](C)[C@@H](CN(C)Cc2ccc(-c3ccccc3)cc2)Oc2ccc(NS(=O)(=O)c3ccccc3)cc2CC1=O` as the molecule, how does the AC50 [8] read?
A: Its AC50 is 17.4 µM (active).

Q: What about the AC50 [9] of the same molecule?
A: Its AC50 is 8 µM (active).

Q: And the AC50 [10]?
A: The AC50 was 26.3 µM (active).

Q: And the AC50 [11]?
A: The AC50 was 14.8 µM (active).

Q: What about the AC50 [12] of the same molecule?
A: Its AC50 is 37.2 µM (active).

Q: What about the AC50 [13] of the same molecule?
A: Its AC50 is 30.4 µM (active).

Q: Which results are given for `Cc1cccc(/C=N\Nc2cnnc(O)c2Cl)c1`?
A: AC50 [14]: 1.06 µM (active); IC50 [15]: > 29.9 µM (inactive); EC50 [16]: 1.28 µM (active); IC50 [17]: 7.33 µM (active); EC50 [18]: > 29.9 µM (inactive); AC50 [19]: 0.76 µM (active); AC50 [20]: 28.2 µM (inconclusive)
